The subject of this assay is breast cancer patients. Put plainly: Chemotherapeutic effect of anticancer agent: tumor size reduction evaluated by palpation in breast cancer patients. The class given is in vivo, human. As for the experimental part:
An anticancer agent docetaxel (Aventis) was administered 4 times with an interval of 3 to 4 weeks, with 60 mg/M^2 (body surface area) per dosage for the breast cancer patients A through I. After the administration, the tumor size reduction was assessed.
A pathologist evaluated the tumors by palpation according to the criteria described in the following paper: Arbuck S G, Eisenhauer E A, Wanders J, Kaplan R S, Rubinstein L, Verweij J, Van Glabbeke M, van Oosterom A T, Christian M C, and Gwyther S G, “New guidelines to evaluate the response to treatment in solid tumors”, J. Natl. Cancer Inst 2000; 92: 205-21. When the tumor was evaluated with the result of “Complete response” and “Partial response”, the tumor was classified into the group of tumor size reduction. When the tumor was evaluated with the result of “Stable Disease” and “Progressive Disease”, the tumor was classified into the group of non-tumor size reduction.
An anticancer agent paclitaxel (Bristol Meyers Squibb) was administered once a week for 12 consecutive weeks, with 80 mg/M^2 (body surface area) per dosage for the breast cancer patients A through I (sic, correctly, J through P). After the administration, the tumor size reduction was assessed according to the same criterion as used in the administration of docetaxel.

Where [1] appears, read: docetaxel 60 mg/M^2 per dosage, 4 times with an interval of 3 to 4 weeks, breast cancer patients A through I.

From US20070231837A1, “Method of Assessing Properties of Mammalian Cells, and Method of Diagnosing Cancer Using the Same” (priority 2004, published 2007) come the findings set out here.

Turning to `CC(=O)O[C@@]12CO[C@@H]1C[C@H](O)[C@@]1(C)C(=O)[C@H](O)C3=C(C)[C@@H](OC(=O)[C@H](O)[C@@H](NC(=O)OC(C)(C)C)c4ccccc4)C[C@@](O)([C@@H](OC(=O)c4ccccc4)[C@H]21)C3(C)C` [docetaxel], under setting [1], the “patients classified into non-tumor size reduction group (Stable Disease or Progressive Disease)” value is “A, B, C, and D”; the “patients classified into tumor size reduction group (Complete response or Partial response)” value was “E, F, G, H, and I”.

Turning to `CC(=O)O[C@H]1C(=O)[C@@]2(C)[C@H]([C@H](OC(=O)c3ccccc3)[C@]3(O)C[C@H](OC(=O)[C@H](O)[C@@H](NC(=O)c4ccccc4)c4ccccc4)C(C)=C1C3(C)C)[C@]1(OC(C)=O)CO[C@@H]1C[C@@H]2O` [paclitaxel], the “patients who were assessed that the tumor size reduction was observed” value (paclitaxel 80 mg/M^2 per dosage, once a week for 12 consecutive weeks, breast cancer patients J through P) is “K, L, M, N, O, and P”.
